Experimental data published in patent US11491128B2, “Reversible nitroxide derivatives of nitroalkenes that mediate nitrosating and alkylating reactions” (University of Pittsburgh—Of the Commonwealth System of …, priority 2016, dated 2022).

Legend:
[1] = N-nitrosation of 2,3-diaminonaphtalene (DAN) to 2,3-naphthotriazole (NAT), followed by HPLC-MS/MS; type: physicochemical; details: for formation of NAT: 20 μM DAN
Method: To investigate if the degradation of NO2—NO3-CLA induced generation of nitrosative species, N-nitrosation of 2,3-diaminonaphtalene (DAN) to yield 2,3-naphthotriazole (NAT) was performed. Briefly, 25 μl synthetic NO2—NO3-CLA standards were dried under a stream of nitrogen gas, and resuspended in 1 ml of solvents at different polarity with 20 μM DAN. Then, formation of NAT was followed over 60 min by HPLC-MS/MS (FIG. 4).
Analysis of NAT was performed by HPLC-MS/MS using an analytical C18 Luna column (2×20 mm, 5 μm, Phenomenex) at a 0.75 ml/min flow rate, with a gradient solvent system consisting of water containing 0.1% acetic acid (solvent A) and acetonitrile containing 0.1% acetic acid (solvent B). Samples were chromatographically resolved using the following gradient program: 10-100% solvent B (0-3.3 min); 100% solvent B (3.3-4.2 min) followed by 0.8 min re-equilibration to initial conditions. An API4000 Q-trap triple quadrupole mass spectrometer (Applied Biosystems, San Jose, Calif.), equipped with an electrospray ionization source (ESI) in positive mode, was used with the following parameters: declustering potential, 70 V; entrance potential 5; collision cell exit potential 10; collision energy 35; and a desolvation temperature of 650° C. NAT was analyzed using the MRM transition 170.1/115.1.

[2] = UV-Vis analysis of NO2-CLA generation by decomposition of NO2—NO3—CLA at different pH (312 nm); type: physicochemical; details: 312 nm (FIG. 1)
Method: Synthetic NO2—NO3—CLA standards were generated by performing independent reactions of 0.5 mg conjugated-9,11-linoleic acid (CLA, cat. no. UC-60A, Nu-Check Prep Inc., Elysian, Minn.) with 2 mM sodium nitrite (NaNO2) in 1 ml artificial gastric fluid for 1 h at 37° C., under continuous agitation. The lipid fraction was extracted by hexane, 50 μl were dried under a stream of nitrogen gas, dissolved in 300 μl methanol and decomposition of the NO2—NO3—CLA with generation of NO2-CLA was measured spectrophotometrically at 312 nm (FIG. 1). The addition of 10 μl acetic acid to the methanolic solution confirmed the stability of NO2—NO3—CLA at acidic pH (FIG. 1, diamond curve).

For `CCCCCCC(/C=C/C(CCCCCCCC(=O)O)[N+](=O)[O-])O[N+](=O)[O-]` (centres unmarked) [NO2—NO3-CLA, (E)-9-nitro-12-(nitrooxy)octadec-10-enoic acid], the “formation of NAT” value ([1]; dissolved in methanol, over 60 min (FIG. 4, square curve)) was “none formation of NAT was observed”, the “stability of NO2—NO3-CLA in basic pH” value ([1]; phosphate buffer 50 mM, pH 7.4 with 100 μM DTPA) was “instability” and the “formation of NAT” value ([1]; phosphate buffer 50 mM, pH 7.4 with 100 μM DTPA, over 60 min (FIG. 4, circle curve)) was “time dependent generation of NAT”. For the same compound, the “degradation of NO2—NO3—CLA with generation of NO2-CLA” value ([2]; methanolic solution + 10 μl phosphate buffer 50 mM pH 7.4 or 10 μl ammonium hydroxide) was “pH-dependent” and the “rate of NO2-CLA generation on pH increase from pH 7.4 to more basic pH” value ([2]; phosphate buffer pH 7.4 versus ammonium hydroxide) was “faster generation of NO2-CLA”.
